Measured values reported in patent US20220304286A1, “SYSTEMS AND METHODS FOR IN VIVO DUAL RECOMBINASE-MEDIATED CASSETTE EXCHANGE (dRMCE) AND DISEASE MODELS THEREOF” (CEDARS-SINAI MEDICAL CENTER, priority 2019, published 2022).
Entries after “also recorded” stand apart in the source; their conditions may differ.

Experiments:
MADR K27M tumor cells = assay: High-throughput drug testing: live-cell imaging of proliferation, MADR K27M tumor cell lines; type: cell-based, mouse; settings: imaged for 92 hours, Incucyte phase contrast, 4 biological replicates
Method: (§1) In high-throughput drug testing experiments, 10.000 cell from the cell lines generated from tumor dissociation and non-tumor control cells were plated in 96 well plates. 24 hours after the seeding appropriate concentration of each drug (1 μM for Vacquinol-1(Sigma-Aldrich, SML1187) and 0.5 μM for AKT 1/2 kinase inhibitor (Sigma- Aldrich, A6730)) was added to the media and cells were imaged for 92 hours in phase contrast using Incucyte S3 System. Images were collected every 2 hours using Incucyte S3 Software. Cell proliferation images analysis was done with Incucyte S3 software and normalized results presented and analyzed with Graphpad Prism 7.
(§2) Mice were euthanized in CO2 chamber and brains were collected in PBS. Immediately, EGFP+ tissue was micro-dissected under a Revolve Hybrid Microscope (Echo Labs, San Diego, Calif.). If allowed by the size of the tumor, some remains of the brain with residual tumor tissue was fixed in 4% PFA for tissue analysis. Microdissected tissue was mechanically dissociated into <1 mm pieces and further digested with Collagenase IV (Worthington Biochemical, Lakewood, N.J.), and DNAse I (Worthington Biochemical, Lakewood, N.J.). The resultant single cell suspension was filtered through […] cell strainer (Stellar Scientific, Baltimore, Md.) and erythrocytes were lysed with ACK lysis buffer (Thermo Fisher Scientific, Waltham, Mass.). […]

[1] = test system: NPCs (tdTomato+ non-tumor control cells); assay: High-throughput drug testing: live-cell imaging of proliferation, non-tumor control NPCs; type: cell-based, mouse; settings: imaged for 92 hours, paired toxicity screening
Method: as §1
as §2, with “Mass.). Single cell suspensions were split into 3 parts: First, for scRNAseq or sc-ATACseq experiments, GFP+ cells from single cell samples were FACS sorted (into 1.5 ml tubes for 10× Chromium). A secondary fraction was used for in vitro cell line establishment.” for “Mass.).”

K27M tumor cells = settings: earlier finding, no details given; cited from earlier work
[2] = AKT 1/2 kinase inhibitor 0.5 μM

Row | Structure (SMILES) | cell proliferation of K27M tumor population (MADR K27M tumor cells; [2]) | cell proliferation of NPCs [1, 2] | cell proliferation of NPCs ([1]; AKT 1/2 kinase inhibitor 0.5 μM, listed as Akt1/2 inhibitor) | toxicity to K27M tumor cells (previously identified) (K27M tumor cells) | cell proliferation of K27M tumor population (MADR K27M tumor cells; Vacquinol-1 1 μM) | cell proliferation of NPCs ([1]; Vacquinol-1 1 μM)
1 | O=c1[nH]c2ccccc2n1C1CCN(Cc2ccc(-c3nc4cc5nc[nH]c5cc4nc3-c3ccccc3)cc2)CC1 [Akt1/2 kinase inhibitor] | decreases proliferation | decreases proliferation | similarly inhibited NPC proliferation | selectively toxic to K27M tumor cells |  | 
2 | OC(c1cc(-c2ccc(Cl)cc2)nc2ccccc12)C1CCCCN1 (stereo not shown) [Vacquinol-1] |  |  |  | selectively toxic to K27M tumor cells | inhibits K27M growth; also recorded: decreases proliferation preferentially | does not alter NPC culture growth
